Test results taken from US5508417A, “Broad-spectrum isothiazole antimicrobial agents” (Rohm and Haas Company, priority 1994, dated 1996).
≈ marks a conversion by molar mass, not a printed value. Where two headings read alike, the source gives them in different places.

What was measured:
Pseudomonas aeruginosa = test: Minimum inhibitory concentration by two-fold serial dilution in Trypticase Soy Broth, Pseudomonas aeruginosa; assay type: cell-based
Method: (§1) A stock solution of the test compound was made in dimethyl sulfoxide at 13,000 ppm and then diluted 26-fold to give a starting concentration of 500 ppm. The antimicrobial activity was evaluated by a two-fold serial dilution of the starting concentration of 500 ppm, using Trypticase Soy Broth medium at pH 7.0. The minimum inhibitory concentration (MIC) of compounds 1-15 against the test organisms are shown in Table 2. |Pseudomonas aeruginosa | Psae The antimicrobial activity of these compounds was determined as described in Example 6 with only one change. The organism Saur was replaced by Rhodotorula rubra (Rrub). Rrub is a pink yeast.

Aspergillus niger = test: Minimum inhibitory concentration by two-fold serial dilution in Trypticase Soy Broth, Aspergillus niger; assay type: cell-based
Method: as §1, with “|Aspergillus niger Anig” for “|Pseudomonas aeruginosa | Psae”

Rhodotorula rubra = test: Minimum inhibitory concentration by two-fold serial dilution in Trypticase Soy Broth, Rhodotorula rubra; assay type: cell-based; details: Table 3, comparative, as described in Example 6, read-out: Comparative Antimicrobial Activity (MIC), Rrub
Method: as §1, with “The” for “The minimum inhibitory concentration (MIC) of compounds 1-15 against the test organisms are shown in Table 2. |Pseudomonas aeruginosa | Psae The”

Escherichia coli = test: Minimum inhibitory concentration by two-fold serial dilution in Trypticase Soy Broth, Escherichia coli; assay type: cell-based
Method: as §1, with “|Escherichia coli Ecol” for “|Pseudomonas aeruginosa | Psae”

Staphlococcus aureus = test: Minimum inhibitory concentration by two-fold serial dilution in Trypticase Soy Broth, Staphlococcus aureus; assay type: cell-based; details: Table 2, pH 7.0, read-out: Antimicrobial Activity (MIC), Saur
Method: A stock solution of the test compound was made in dimethyl sulfoxide at 13,000 ppm and then diluted 26-fold to give a starting concentration of 500 ppm. The antimicrobial activity was evaluated by a two-fold serial dilution of the starting concentration of 500 ppm, using Trypticase Soy Broth medium at pH 7.0. The minimum inhibitory concentration (MIC) of compounds 1-15 against the test organisms are shown in Table 2. |Staphlococcus aureus | Saur

[1] = in words; U.S. Pat. No. 3,957,808; cited from earlier work
[2] = Table 2, Trypticase Soy Broth, pH 7.0, read-out: Antimicrobial Activity (MIC), Psae
[3] = Table 3, comparative, as described in Example 6, read-out: Comparative Antimicrobial Activity (MIC), Psae
[4] = Table 2, Trypticase Soy Broth, pH 7.0, read-out: Antimicrobial Activity (MIC), Anig
[5] = Table 3, comparative, as described in Example 6, read-out: Comparative Antimicrobial Activity (MIC), Anig
[6] = Table 2, Trypticase Soy Broth, pH 7.0, read-out: Antimicrobial Activity (MIC), Ecol
[7] = Table 3, comparative, as described in Example 6, read-out: Comparative Antimicrobial Activity (MIC), Ecol

SMILES: C=C(COc1cc(Cl)sn1)C(=O)OC [Compound 2, Methyl 2-(5-chloroisothiazoloxy-3-yl-methyl)acrylate]
- MIC (Pseudomonas aeruginosa; [2]): 32 µg/mL (≈ 137 µM)
- MIC (Pseudomonas aeruginosa; [3]): 32 µg/mL (≈ 137 µM)
- MIC (Aspergillus niger; [4]): 1 µg/mL (≈ 4.28 µM)
- MIC (Aspergillus niger; [5]): 4 µg/mL (≈ 17.1 µM)
- MIC (Rhodotorula rubra): 8 µg/mL (≈ 34.2 µM)
- MIC (Escherichia coli; [6]): 2 µg/mL (≈ 8.56 µM)
- MIC (Escherichia coli; [7]): < 4 µg/mL
- MIC (Staphlococcus aureus): 4 µg/mL (≈ 17.1 µM)

SMILES: O=C1C=CC(=O)C(COc2ccsn2)=C1 [Compound 15, 2-(Isothiazoloxy-3-yl-methyl)-1,4-benzoquinone]
- MIC (Pseudomonas aeruginosa; [2]): 32 µg/mL (≈ 145 µM)
- MIC (Aspergillus niger; [4]): 16 µg/mL (≈ 72.3 µM)
- MIC (Escherichia coli; [6]): 64 µg/mL (≈ 289 µM)
- MIC (Staphlococcus aureus): 32 µg/mL (≈ 145 µM)

SMILES: O=c1c(COc2cc(Cl)sn2)coc2ccccc12 [Compound 13, 3-(5-Chloroisothiazoloxy-3-yl-methyl)chromone]
- MIC (Pseudomonas aeruginosa; [2]): 32 µg/mL (≈ 109 µM)
- MIC (Aspergillus niger; [4]): 16 µg/mL (≈ 54.5 µM)
- MIC (Escherichia coli; [6]): 8 µg/mL (≈ 27.2 µM)
- MIC (Staphlococcus aureus): 8 µg/mL (≈ 27.2 µM)

SMILES: C=C(C(C)Oc1cc(Cl)sn1)S(=O)(=O)c1ccccc1 (stereo not shown) [Compound 7, 3-(5-Chloroisothiazoloxy-3-yl)-2-phenylsulfonyl-1-butene]
- MIC (Pseudomonas aeruginosa; [2]): 32 µg/mL (≈ 97 µM)
- MIC (Aspergillus niger; [4]): 32 µg/mL (≈ 97 µM)
- MIC (Escherichia coli; [6]): 32 µg/mL (≈ 97 µM)
- MIC (Staphlococcus aureus): 32 µg/mL (≈ 97 µM)

SMILES: C=C(COc1cc(Cl)sn1)[S+]([O-])c1ccccc1 (stereo not shown) [Compound 6, 3-(5-Chloroisothiazoloxy-3-yl-methyl)-2-phenylsulfinyl-1-propene]
- MIC (Pseudomonas aeruginosa; [2]): 125 µg/mL (≈ 417 µM)
- MIC (Aspergillus niger; [4]): 32 µg/mL (≈ 107 µM)
- MIC (Escherichia coli; [6]): 125 µg/mL (≈ 417 µM)
- MIC (Staphlococcus aureus): 125 µg/mL (≈ 417 µM)

SMILES: N#CC(=Cc1ccccc1)COc1cc(Cl)sn1 [Compound 4, 2-(5-Chloroisothiazoloxy-3-yl-methyl)-3-phenylacrylonitrile]
- MIC (Pseudomonas aeruginosa; [2]): > 500 µg/mL
- MIC (Aspergillus niger; [4]): 500 µg/mL (≈ 1810 µM)
- MIC (Escherichia coli; [6]): > 500 µg/mL
- MIC (Staphlococcus aureus): 500 µg/mL (≈ 1810 µM)

SMILES: C=C(COc1cc(Cl)sn1)C(=O)NC(C)C [Compound 12, N-Isopropyl 2-(5-chloroisothiazoloxy-3-yl-methyl)acrylamide]
- MIC (Pseudomonas aeruginosa; [2]): 500 µg/mL (≈ 1920 µM)
- MIC (Aspergillus niger; [4]): 64 µg/mL (≈ 245 µM)
- MIC (Escherichia coli; [6]): 500 µg/mL (≈ 1920 µM)
- MIC (Staphlococcus aureus): > 500 µg/mL

SMILES: C=C(COc1ccsn1)C(=O)OC [Compound 1, Methyl 2-(isothiazoloxy-3-yl-methyl)acrylate]
- MIC (Pseudomonas aeruginosa; [2]): 32 µg/mL (≈ 161 µM)
- MIC (Pseudomonas aeruginosa; [3]): 32 µg/mL (≈ 161 µM)
- MIC (Aspergillus niger; [4]): 32 µg/mL (≈ 161 µM)
- MIC (Aspergillus niger; [5]): 32 µg/mL (≈ 161 µM)
- MIC (Rhodotorula rubra): 32 µg/mL (≈ 161 µM)
- MIC (Escherichia coli; [6]): 32 µg/mL (≈ 161 µM)
- MIC (Escherichia coli; [7]): 32 µg/mL (≈ 161 µM)

SMILES: CC=C(COc1cc(Cl)sn1)S(=O)(=O)c1ccccc1 [Compound 8, 1-(5-Chloroisothiazoloxy-3-yl-methyl)-2-phenylsulfonyl-2-butene]
- MIC (Pseudomonas aeruginosa; [2]): 64 µg/mL (≈ 194 µM)
- MIC (Aspergillus niger; [4]): 64 µg/mL (≈ 194 µM)
- MIC (Escherichia coli; [6]): 32 µg/mL (≈ 97 µM)
- MIC (Staphlococcus aureus): 32 µg/mL (≈ 97 µM)

SMILES: C=CCOc1cc(Cl)sn1 [B, reference compound]
- MIC (Pseudomonas aeruginosa; [3]): 500 µg/mL (≈ 2850 µM)
- MIC (Aspergillus niger; [5]): 250 µg/mL (≈ 1420 µM)
- MIC (Rhodotorula rubra): 500 µg/mL (≈ 2850 µM)
- MIC (Escherichia coli; [7]): 250 µg/mL (≈ 1420 µM)

SMILES: CC=C(COc1cc(Cl)sn1)C(=O)OCC [Compound 3, Ethyl 3-methyl-2-(5-chloroisothiazoloxy-3-yl-methyl)acrylate]
- MIC (Pseudomonas aeruginosa; [2]): 125 µg/mL (≈ 478 µM)
- MIC (Aspergillus niger; [4]): 4 µg/mL (≈ 15.3 µM)
- MIC (Escherichia coli; [6]): 8 µg/mL (≈ 30.6 µM)
- MIC (Staphlococcus aureus): 8 µg/mL (≈ 30.6 µM)

SMILES: C=C(COc1cc(Cl)sn1)C(=O)NCc1ccccc1 [Compound 9, N-Benzyl 2-(5-chloroisothiazoloxy-3-yl-methyl)acrylamide]
- MIC (Pseudomonas aeruginosa; [2]): > 500 µg/mL
- MIC (Aspergillus niger; [4]): 32 µg/mL (≈ 104 µM)
- MIC (Escherichia coli; [6]): > 500 µg/mL
- MIC (Staphlococcus aureus): > 500 µg/mL

SMILES: CC(=O)C(=Cc1ccccc1)COc1cc(Cl)sn1 [Compound 5, α-(5-Chloroisothiazoloxy-3-yl-methyl)benzalacetone]
- MIC (Pseudomonas aeruginosa; [2]): 16 µg/mL (≈ 54.5 µM)
- MIC (Aspergillus niger; [4]): 1 µg/mL (≈ 3.4 µM)
- MIC (Escherichia coli; [6]): 4 µg/mL (≈ 13.6 µM)
- MIC (Staphlococcus aureus): 2 µg/mL (≈ 6.81 µM)

SMILES: C=CCOc1ccsn1 [Compound A, reference compound]
- MIC (Pseudomonas aeruginosa; [3]): > 500 µg/mL
- MIC (Aspergillus niger; [5]): 500 µg/mL (≈ 3540 µM)
- MIC (Rhodotorula rubra): > 500 µg/mL
- MIC (Escherichia coli; [7]): > 500 µg/mL
- microbicidal properties [1]: useful microbicidal properties

SMILES: CC(=O)C(=Cc1ccccc1)COc1nsc2c1CCC2 [Compound 11, α-(4,5-Trimethyleneisothiazoloxy-3-yl-methyl)benzalacetone]
- MIC (Pseudomonas aeruginosa; [2]): > 500 µg/mL
- MIC (Aspergillus niger; [4]): 500 µg/mL (≈ 1670 µM)
- MIC (Escherichia coli; [6]): > 500 µg/mL
- MIC (Staphlococcus aureus): > 500 µg/mL

SMILES: O=C1C=CC(=O)C(COc2cc(Cl)sn2)=C1 [Compound 14, 2-(5-Chloroisothiazoloxy-3-yl-methyl)-1,4-benzoquinone]
- MIC (Pseudomonas aeruginosa; [2]): 64 µg/mL (≈ 250 µM)
- MIC (Aspergillus niger; [4]): 8 µg/mL (≈ 31.3 µM)
- MIC (Escherichia coli; [6]): 16 µg/mL (≈ 62.6 µM)
- MIC (Staphlococcus aureus): 64 µg/mL (≈ 250 µM)

SMILES: C=C(COc1cc(Cl)sn1)C(=O)O [Compound 10, 2-(5-Chloroisothiazoloxy-3-yl-methyl)acrylic acid]
- MIC (Pseudomonas aeruginosa; [2]): > 500 µg/mL
- MIC (Aspergillus niger; [4]): > 500 µg/mL
- MIC (Escherichia coli; [6]): 125 µg/mL (≈ 569 µM)
- MIC (Staphlococcus aureus): 64 µg/mL (≈ 291 µM)
